The numbers were not newly measured in publication PMC4421842 (Nature Communications, 2015), which cites them from elsewhere.

Details of series [1]: method as in PMID 24545057. Particulars: dosed subcutaneously, orally or by intraperitoneal injection; cited from earlier work.
The subject of series [2] is K. pneuomoniae, S. aureus or Mycobacterium tuberculosis. Further details: method as in PMID 24545057. The following applies: cited from earlier work.

With `Cc1cc(=O)n2c3c(c4c(cc13)c(CO)cc(=O)n4C)OC2` [NM, Nybomycin], in series [1], the tolerability in mice entry is given as “well tolerated”. Also, in series [2], the “activity in mice infected with various bacteria” value is recorded as “no activity”.
